Measurements as given in patent US5079239A, “Sterol disulfates and methods of use” (Harbor Branch Oceanographic Institution, Inc., priority 1990, dated 1992).
In brackets after ≈: the same amount, converted by molar mass. Read-outs that look alike come from different tables or passages of the source.

How the values were obtained:
[1] = system: feline leukemia virus (FeLV); test: Feline leukemia virus (FeLV) antiviral drug test; assay type: cell-based; conditions: for EC50: Feline leukemia virus; for TI: in vitro therapeutic index, ratio of IC50/EC50, FeLV; for activity against the feline leukemia virus: result in words, Tables 1 through 3
Excerpt: Feline leukemia viruses belong to the retrovirus family. Diseases caused by members of this family in cats have clinical manifestations similar to symptoms observed in humans with diseases caused by the human immunodeficiency viruses. Feline leukemia virus was selected as a representative member of the retrovirus family to use as a model for drug testing to search for compounds effective in preventing viral infection and replication. Cell lines were provided by Hansen Veterinary Immunology, and reagents and protocols for the ELISA assay can be purchased from the same company.
(§1) Antiviral activity on crude extracts is expressed by percent antiviral activity or by using the minus and plus values stated above. The EC50 of an antiviral drug represents the concentration of drug that results in 50% reduction of the viral cytopathic effect and the IC50 represents the concentration resulting in 50% growth inhibition. These values are determined from graphs constructed from the raw data. The in vitro therapeutic index (TI) is the ratio of IC50 /EC50.

CRFK cells = test: Toxicity for CRFK cells (neutral red or MTT assay), FeLV test; assay type: cell-based
Method: A. Determination of Toxicity of Samples for CRFK Cells with Neutral Red Assay or MTT Assay
This assay is a modification of a procedure provided in detail by Dr. Ellen Borenfreund from Rockefeller University. Borenfreund, E., and J. A. Puerner (1984) "A Simple Quantitative Procedure Using Monolayer Cultures for Cytotoxicity Assays (HTD/NR-90)," J. Tissue Culture Methods 9:7-9.
b. MTT is diluted in D-MEM maintenance medium at a concentration of 1 mg per ml. For the toxicity test 75 microliters are added to each well of a 96-well plate without removing any medium. The plates are incubated for 6 hours at 37° C. At the end of the incubation period the medium is removed. If the cell layer is adherent, plates are not centrifuged to bring the cells down. CRFK is an adherent cell line, and for the MTT assay, no centrifugation is required. To each well 200 microliters of isopropyl alcohol are added. The formazan crystals are dissolved. After mixing, the plates are read with a plate reader at a wavelength of 570 nm. Toxicity percentages are determined the same as for neutral red.
as §1

[2] = system: human immunodeficiency virus (HIV); test: HIV (AIDS virus) antiviral assay; assay type: cell-based
Method: as §1

[3] = 50% growth inhibition (toxicity) in HIV assay; assay type: cell-based
Method: as §1

murine splenocytes = test: Two-way mixed lymphocyte reaction (MLR); assay type: cell-based, mouse (BALB/c and C57BL/6J)
Method: The pure compound was tested in the two-way mixed lymphocyte reaction (MLR) and a lymphocyte viability assay (LCV) at 500, 50, 5, and 0.5 μg/ml, using murine splenocytes. Cellular proliferation was measured using incorporation of ^3 H-thymidine. Responses were reported as a percent of the positive MLR or LCV control.
1. Murine splenocyte suspensions were prepared separately from BALB/c and C57BL/6J mice. Spleens were aseptically removed and homogenized in RPMI 1640 tissue culture medium (TCM), supplemented with 10% fetal calf serum, 2% 1-glutamine, 15 mM HEPES, 1% antibiotic-antimycotic solution, and 25 μg/ml gentamycin (GIBCO). The cell concentrations were adjusted to 2.5×10^6 cells/ml. Aliquots of each cell population were removed to separate tubes, and the remaining two cell suspensions combined to one tube.
2. Serial, log10 dilutions of the pure compound were made in absolute ethanol, and 10 μl of each dilution were added to wells of microtiter test plates, and allowed to dry.
3. A volume of 0.2 ml of the combined splenocyte suspensions was added to triplicate test wells. Positive control wells received combined splenocyte suspensions in the absence of the test compounds. Negative control wells consisted of separate (not mixed) splenocyte suspensions cultured in the absence of the test compounds.
4. Plates were incubated in 5% CO2 at 37° C. for 86 hours.
5. A volume of 0.05 ml of ^3 H-thymidine (20 (μCi/ml) was added to each well, and the plates incubated in 5% CO2 at 37° C. for an additional 5 hours.
6. The contents of each well of the microtiter plates were harvested onto glass fiber filter strips, and the resulting filter discs placed in scintillation vials to which 2.0 ml of scintillation fluid was added.
7. The amount of incorporated ^3 H-thymidine was determined by counting the vials in a liquid scintillation counter.
8. Triplicate counts were averaged, and the data reported as a percentage of the positive control.

P388 = test: Standard P388 assay (tumor cell growth inhibition); assay type: cell-based
Excerpt: HB100 has also been tested to determine its activity in inhibiting the growth of tumor cells.

[4] = system: mouse coronavirus A59 (MHV-A59); test: Antiviral assay for mouse coronavirus A59 (CPE); assay type: cell-based, mouse hepatitis virus strain MHV-A59; design: key to activity: +++: complete inhibition of CPE and cell fusion; ++: partial inhibition; +: partial inhibition; +/-: partial inhibition; -: no protection
Method: (§2) The antiviral assay for A59 is a cytopathic test (CPE). Susceptible cells are infected with the virus at a dose that infects most of the cells and produces CPE. The characteristic CPE observed is the formation of syncytia. Compounds and extracts which inhibit the CPE are referred to as active samples.
(§3) 1. NCTC clone 1469 is a derivative of mouse liver.
1. Mouse hepatitis virus strain MHV-A59 classified as a coronavirus.
1. Dilute drug or extract for test in the appropriate solvent.
2. Add 20 μl per tube or well.
3. Allow the solvent to evaporate under the laminar flow hood.
4. Dilute the MHV-A59 in Dulbecco's phosphate buffered saline with Ca^++ and Mg^++ to the appropriate predetermined dilution for the lot number currently in use.
5. Remove medium from wells of 24 well plate containing NCTC 1469 cells seeded 24 hours earlier.
6. Medium can be removed by pouring the fluid from the plate and blotting it on a sterile towel.
7. Add 200 lambda of diluted virus to each test well. Add PBS to control wells.
8. Incubate cells and virus for 1 hour at 37° C.
9. Pour off supernatant at end of incubation period.
10. To each glass tube add 10 lambda of dimethyl sulfoxide (DMSO). The purpose for the DMSO is to solubilize the drug. If it is known that the drug under test is water soluble, then the DMSO is not necessary. However, in cases of testing unknown compounds, DMSO may be added, but DMSO causes some toxicity. Since differences have been noted with and without DMSO, the preferred technique is to test the sample under both conditions.
11. Add 1 ml of maintenance medium to each glass tube.
12. Pour the contents of the glass tube into the corresponding well of the tissue culture plate.
13. Incubate infected cells at 37° C. and read the following day.
14. At 12 hours, areas of cell fusion are quite apparent and can be detected both visually and microscopically.
15. […]
To assist in visual interpretation of the data, the antiviral activity is scored from a minus to a three plus based on the percentage of inhibition of viral cytopathic effects. […]

[5] = Cytotoxicity scoring in coronavirus A59 assay; assay type: cell-based; conditions: mouse, nctc 1469 cells, read-out: toxicity
Excerpt: as §2, §3
100%=complete cell destruction
75%=partial cell destruction
50%=partial cell destruction
25%=partial cell destruction

[6] = FeLV assay, 50% growth inhibition, molar value, read-out: IC50 (in parentheses)

Row | Compound | EC50 [1] [µg/mL] | TI [1] | activity against the feline leukemia virus [1] | IC50 (CRFK cells) [µg/mL] | IC50 (CRFK cells; [6]) [µM] | TI ([2]; in vitro therapeutic index, ratio of IC50/EC50, HIV) | activity against the AIDS virus ([2]; result in words) | IC50 [3] [µg/mL] | activity at 0.05 µg/mL (murine splenocytes; Mus musculus, Splenocyte, 0.05 μg/ml, percent of positive control) [%] | activity at 5 µg/mL (murine splenocytes; Mus musculus, Splenocyte, 5.00 μg/ml, percent of positive control) [%] | activity at 50 µg/mL (murine splenocytes; Mus musculus, Splenocyte, 50.00 μg/ml, percent of positive control) [%] | activity at 500 µg/mL (murine splenocytes; Mus musculus, Splenocyte, 500.00 μg/ml, percent of positive control) [%] | immunosuppressive activity (MLR <100% and LCV >70%) (murine splenocytes; at 50 μg/ml and 5 μg/ml, result in words) | IC50 (P388; Mus musculus, standard P388 assay) [µg/mL] | inhibition of growth of tumor cells (P388; result in words) | activity ([4]; 2 μg) | activity ([4]; 20 μg) | inhibition of viral growth ([4]; 20 μg, result in words) | cytotoxicity ([5]; 2 μg) [%] | cytotoxicity ([5]; 20 μg) [%]
1 | CC(C)C1(CCC(C)(O)C2C(O)CC3C4CCC5CC(OS(=O)(=O)O)C(OS(=O)(=O)O)CC5(C)C4CCC32C)CC1C (stereo not drawn) [HB99] | 20 (≈ 31.4 µM) | 17.5 | showed activity against the feline leukemia virus | 350 | 514 | 70 | showed activity against the AIDS virus | 350 (≈ 550 µM) | 126 | 98 | 19 | 0 | exhibited immunosuppressive activity |  |  |  |  |  |  | 
2 | CC(CCC1(C(C)C)CC1C)C1C(O)CC2C3CCC4CC(OS(=O)(=O)O)C(OS(=O)(=O)O)CC4(C)C3CCC21CO (stereo not drawn) [HB100] | 26 (≈ 40.8 µM) | 7.1 | showed activity against the feline leukemia virus | 185 | 272 |  |  |  |  |  |  |  |  | 0.1 (≈ 0.157 µM) | inhibit the growth of tumor cells |  |  |  |  | 
3 | CCCC12OC3CC4C5CCC6CC(OS(=O)(=O)O)C(OS(=O)(=O)O)CC6(C)C5CCC4(C)C3C(C)(O1)C(CC1(C(C)C)CC1C)O2 (stereo not drawn) [HB124] | 6.25 (≈ 8.87 µM) | > 8 | showed activity against the feline leukemia virus | > 50 | > 68 |  |  |  |  |  |  |  |  |  |  | - | ++ | significantly inhibit viral growth | 0 | 25
